Experimental data from the NIST ThermoML archive (doi:10.1016/j.fluid.2017.11.013).
“And” between values parts separate entries of the source, which are not always exact repeats. Equal entries are not always repeated. Numbers after ± are expanded uncertainties.

Settings: Fluid (supercritical or subcritical phases), Coaxial cylinder method

C=C [ethene]
Settings | thermal conductivity
285.04 K, 6160 kPa | 0.06936 ± 0.0027 W/m/K
285.04 K, 6760 kPa | 0.07168 ± 0.0028 W/m/K
285.04 K, 7250 kPa | 0.07341 ± 0.0028 W/m/K
285.04 K, 8160 kPa | 0.07598 ± 0.0029 W/m/K
285.04 K, 9010 kPa | 0.07839 ± 0.003 W/m/K
285.04 K, 9690 kPa | 0.0804 ± 0.003 W/m/K
285.04 K, 9800 kPa | 0.08072 ± 0.0031 W/m/K
285.04 K, 9810 kPa | 0.08067 ± 0.0031 W/m/K
285.04 K, 9830 kPa | 0.0807 ± 0.0031 W/m/K
285.04 K, 9850 kPa | 0.08058 ± 0.003 W/m/K
285.04 K, 9900 kPa | 0.08077 ± 0.0031 W/m/K
285.04 K, 9920 kPa | 0.08085 ± 0.0031 W/m/K
285.04 K, 9950 kPa | 0.08076 ± 0.0031 W/m/K and 0.08065 ± 0.0031 W/m/K
285.04 K, 10000 kPa | 0.08079 ± 0.0031 W/m/K
285.04 K, 10180 kPa | 0.08121 ± 0.0031 W/m/K
285.04 K, 10350 kPa | 0.08166 ± 0.0031 W/m/K
285.04 K, 10570 kPa | 0.08194 ± 0.0031 W/m/K
288.24 K, 4580 kPa | 0.03085 ± 0.0015 W/m/K
288.24 K, 5100 kPa | 0.03767 ± 0.0017 W/m/K
288.24 K, 5360 kPa | 0.04634 ± 0.002 W/m/K
288.24 K, 5510 kPa | 0.05465 ± 0.0022 W/m/K
288.24 K, 5570 kPa | 0.06007 ± 0.0024 W/m/K
288.24 K, 5630 kPa | 0.06943 ± 0.0027 W/m/K
288.24 K, 5680 kPa | 0.07371 ± 0.0028 W/m/K
288.24 K, 5790 kPa | 0.0746 ± 0.0029 W/m/K
288.24 K, 5920 kPa | 0.06841 ± 0.0027 W/m/K
288.24 K, 6000 kPa | 0.06651 ± 0.0026 W/m/K
288.24 K, 6240 kPa | 0.06542 ± 0.0026 W/m/K
288.24 K, 6570 kPa | 0.06758 ± 0.0026 W/m/K
288.24 K, 7140 kPa | 0.06951 ± 0.0027 W/m/K
294.62 K, 5100 kPa | 0.03346 ± 0.0015 W/m/K
294.62 K, 5370 kPa | 0.03618 ± 0.0016 W/m/K
294.62 K, 6200 kPa | 0.05841 ± 0.0023 W/m/K
294.62 K, 6290 kPa | 0.06125 ± 0.0024 W/m/K
294.62 K, 6530 kPa | 0.06505 ± 0.0025 W/m/K
294.62 K, 6690 kPa | 0.066 ± 0.0026 W/m/K
294.62 K, 6770 kPa | 0.06592 ± 0.0026 W/m/K
294.62 K, 6870 kPa | 0.06592 ± 0.0026 W/m/K
294.62 K, 6950 kPa | 0.06591 ± 0.0026 W/m/K
294.62 K, 7030 kPa | 0.0659 ± 0.0026 W/m/K
294.62 K, 7130 kPa | 0.06589 ± 0.0026 W/m/K
294.62 K, 7360 kPa | 0.06665 ± 0.0026 W/m/K
294.62 K, 7490 kPa | 0.06627 ± 0.0026 W/m/K
294.62 K, 7670 kPa | 0.06623 ± 0.0026 W/m/K
294.62 K, 7690 kPa | 0.06625 ± 0.0026 W/m/K
294.62 K, 8210 kPa | 0.06804 ± 0.0026 W/m/K
294.62 K, 8570 kPa | 0.06916 ± 0.0027 W/m/K
294.62 K, 9220 kPa | 0.07111 ± 0.0027 W/m/K
294.62 K, 9740 kPa | 0.07276 ± 0.0028 W/m/K
294.62 K, 10280 kPa | 0.07482 ± 0.0029 W/m/K
294.62 K, 10840 kPa | 0.07574 ± 0.0029 W/m/K
301.6 K, 1010 kPa | 0.02196 ± 0.0012 W/m/K
301.6 K, 1900 kPa | 0.02294 ± 0.0012 W/m/K
301.6 K, 2940 kPa | 0.02469 ± 0.0013 W/m/K
301.6 K, 3920 kPa | 0.02736 ± 0.0014 W/m/K
301.6 K, 5010 kPa | 0.03136 ± 0.0015 W/m/K
301.6 K, 5560 kPa | 0.0359 ± 0.0016 W/m/K
301.6 K, 5610 kPa | 0.03586 ± 0.0016 W/m/K
301.6 K, 6120 kPa | 0.0417 ± 0.0018 W/m/K and 0.04209 ± 0.0018 W/m/K
301.6 K, 6550 kPa | 0.0488 ± 0.002 W/m/K
301.6 K, 6780 kPa | 0.05244 ± 0.0022 W/m/K
301.6 K, 6930 kPa | 0.05667 ± 0.0023 W/m/K
301.6 K, 7100 kPa | 0.05988 ± 0.0024 W/m/K
